Experimental data published in PubChem BioAssay AID330 (DTP/NCI, 2004).
Several values for one entry are separate records, joined by “and”; a condition that tells them apart may be missing. Equal values may be shown once. Toxic doses and inconclusive results are not listed.

Test system: P388 leukemia ip, CD2F1 mice, survival T/C
Assay: NCI In Vivo Anticancer Drug Screen. Data for tumor model P388 Leukemia (intraperitoneal) in CD2F1 (CDF1) mice
Details: endpoint: median survival time, higher = longer survival
Summary of the method: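 Mice carrying the transplanted tumor received test compound or vehicle. Survival was recorded in each group, and the value is the treated-group measurement divided by that of the vehicle-treated control group.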

[1] = dose: 50.0 mg/kg/injection, schedule: Q01DX009 (ip), vehicle: saline
[2] = dose: 100.0 mg/kg/injection, schedule: Q01DX009 (ip), vehicle: saline
[3] = dose: 1.56 mg/kg/injection, schedule: Q01DX009 (ip), vehicle: saline
[4] = dose: 6.25 mg/kg/injection, schedule: Q01DX009 (ip), vehicle: saline
[5] = dose: 12.5 mg/kg/injection, schedule: Q01DX009 (ip), vehicle: saline
[6] = dose: 25.0 mg/kg/injection, schedule: Q01DX009 (ip), vehicle: saline
[7] = dose: 50.0 mg/kg/injection, schedule: Q01DX009 (ip), vehicle: Klucel (hydroxypropylcellulose) (HPC)
[8] = dose: 100.0 mg/kg/injection, schedule: Q01DX009 (ip), vehicle: Klucel (hydroxypropylcellulose) (HPC)
[9] = dose: 200.0 mg/kg/injection, schedule: Q01DX009 (ip), vehicle: Klucel (hydroxypropylcellulose) (HPC)
[10] = dose: 50.0 mg/kg/injection, schedule: Q01DX005 (ip), vehicle: saline with Tween-80
[11] = dose: 100.0 mg/kg/injection, schedule: Q01DX005 (ip), vehicle: saline with Tween-80
[12] = dose: 200.0 mg/kg/injection, schedule: Q01DX005 (ip), vehicle: saline with Tween-80
[13] = dose: 200.0 mg/kg/injection, schedule: Q01DX009 (ip), vehicle: saline
[14] = dose: 60.0 mg/kg/injection, schedule: Q01DX005 (ip), vehicle: saline with Tween-80
[15] = dose: 120.0 mg/kg/injection, schedule: Q01DX005 (ip), vehicle: saline with Tween-80
[16] = dose: 50.0 mg/kg/injection, schedule: Q01DX005 (ip), vehicle: Klucel (hydroxypropylcellulose) (HPC)

With `C/C=C1/CN2CCc3c4n(c5ccccc35)[C@H](C(=O)OC)[C@H]1C[C@@H]42` the T/C (dose: 12.5 mg/kg/injection, schedule: Q01DX005 (ip), vehicle: acid diluted with saline) was 107 % of control, the T/C (dose: 25.0 mg/kg/injection, schedule: Q01DX005 (ip), vehicle: acid diluted with saline) was 94 % of control and the T/C (dose: 50.0 mg/kg/injection, schedule: Q01DX005 (ip), vehicle: acid diluted with saline) was 98 % of control. For the same compound, the T/C (dose: 100.0 mg/kg/injection, schedule: Q01DX005 (ip), vehicle: acid diluted with saline) was 100 % of control.

For `Cc1nc(C)n2cnnc2c1C`, the T/C (dose: 100.0 mg/kg/injection, schedule: Q04DX003 (ip), vehicle: saline) was 96 % of control and the T/C (dose: 200.0 mg/kg/injection, schedule: Q04DX003 (ip), vehicle: saline) was 95 % of control.

In the case of `CCCN(CCC)CCCOC(=O)c1ccc2oc3ccc(C(=O)OCCCN(CCC)CCC)cc3c2c1`, the T/C [1] is reported as 103 % of control and the T/C [2] is reported as 106 % of control.

`N#CC1CC2C=CC1C2` (configuration not stated) was tested, and the T/C (dose: 5.0 mg/kg/injection, schedule: Q01DX009 (ip), vehicle: saline sonified) was 109 % of control, the T/C (dose: 10.0 mg/kg/injection, schedule: Q01DX009 (ip), vehicle: saline sonified) was 109 % of control and the T/C (dose: 20.0 mg/kg/injection, schedule: Q01DX009 (ip), vehicle: saline sonified) was 90 % of control.

With `[Br][Pt].[NH-]CC[N-]CC[NH-]` the T/C [3] was 102 % of control, the T/C (dose: 3.13 mg/kg/injection, schedule: Q01DX009 (ip), vehicle: saline) was 100 % of control and the T/C [4] was 100 % of control. For the same compound, the T/C [5] was 97 % of control and the T/C [6] was 97 % of control.

With `BrC/C(=N\N=C(/CBr)c1ccccc1)c1ccccc1` the T/C [7] was 103 % of control, the T/C [8] was 112 % of control and the T/C [9] was 96 % of control.

`O=C(Nc1ccccc1)OC(CS(=O)(=O)c1ccccc1)C(Cl)(Cl)Cl` (configuration not stated) was tested, and the T/C [10] was 92 % of control, the T/C [11] was 96 % of control and the T/C [12] was 95 % of control.

In the case of `Nc1nc(F)nc2c1ncn2C1OC(COP(=O)(O)O)C(O)C1O` (configuration not stated), the T/C (dose: 12.5 mg/kg/injection, schedule: Q01DX009 (ip), vehicle: Klucel (hydroxypropylcellulose) (HPC)) is reported as 110 % of control, the T/C (dose: 25.0 mg/kg/injection, schedule: Q01DX009 (ip), vehicle: Klucel (hydroxypropylcellulose) (HPC)) is reported as 117 % of control and the T/C [7] is reported as 120 % of control. The T/C (dose: 50.0 mg/kg/injection, schedule: Q04DX002 (ip), vehicle: saline) was 100 % of control, the T/C [8] was 153 % of control and 165 % of control and the T/C (dose: 100.0 mg/kg/injection, schedule: Q04DX002 (ip), vehicle: saline) was 107 % of control. For the same compound, the T/C (dose: 175.0 mg/kg/injection, schedule: Q01DX009 (ip), vehicle: saline) was 203 % of control and 213 % of control, the T/C [9] was 111 % of control and 215 % of control and the T/C [13] was 222 % of control and 224 % of control. For the same compound, the T/C (dose: 200.0 mg/kg/injection, schedule: Q04DX002 (ip), vehicle: saline) was 111 % of control and 117 % of control, the T/C (dose: 225.0 mg/kg/injection, schedule: Q01DX009 (ip), vehicle: saline) was 230 % of control and 233 % of control and the T/C (dose: 250.0 mg/kg/injection, schedule: Q01DX009 (ip), vehicle: saline) was 236 % of control and 241 % of control. The T/C (dose: 400.0 mg/kg/injection, schedule: Q04DX002 (ip), vehicle: saline) was 123 % of control, the T/C (dose: 1500.0 mg/kg/injection, schedule: Q01DX001 (ip), vehicle: saline) was 155 % of control and the T/C (dose: 1600.0 mg/kg/injection, schedule: Q04DX002 (ip), vehicle: saline) was 182 % of control.

`Cc1c(C(=O)O)no[n+]1[O-]` was tested, and the T/C (dose: 60.0 mg/kg/injection, schedule: Q01DX005 (ip), vehicle: saline) was 101 % of control, the T/C (dose: 120.0 mg/kg/injection, schedule: Q01DX005 (ip), vehicle: saline) was 93 % of control and the T/C (dose: 240.0 mg/kg/injection, schedule: Q01DX005 (ip), vehicle: saline) was 93 % of control.

With `Cc1ccc(C2OC(c3ccc(C)cc3)C(C)C(=O)C2C)cc1` (configuration not stated) the T/C [1] was 90 % of control, the T/C [2] was 94 % of control and the T/C [13] was 99 % of control.

`Cc1cc(OCCCCCCC[N+](C)(C)Cc2ccc([N+](=O)[O-])o2)c(C(C)C)cc1Cl` was tested, and the T/C (dose: 12.5 mg/kg/injection, schedule: Q04DX003 (ip), vehicle: saline) was 99 % of control and the T/C (dose: 25.0 mg/kg/injection, schedule: Q04DX003 (ip), vehicle: saline) was 92 % of control.

In the case of `COC(=O)c1nc(=S)[nH]c(C(=O)OC)c1C(=O)c1ccccn1`, the T/C (dose: 60.0 mg/kg/injection, schedule: Q01DX005 (ip), vehicle: Klucel + Tween-80) is reported as 105 % of control, the T/C (dose: 120.0 mg/kg/injection, schedule: Q01DX005 (ip), vehicle: Klucel + Tween-80) is reported as 95 % of control and the T/C (dose: 240.0 mg/kg/injection, schedule: Q01DX005 (ip), vehicle: Klucel + Tween-80) is reported as 95 % of control.

For `C=CCN(CC=C)C(=O)Nc1cc(OC)ccc1OC`, the T/C [14] was 97 % of control, the T/C [15] was 97 % of control and the T/C (dose: 240.0 mg/kg/injection, schedule: Q01DX005 (ip), vehicle: saline with Tween-80) was 103 % of control.

With `Clc1ccc2c(NCCC3CCCN4CCCCC34)ccnc2c1` (configuration not stated) the T/C (dose: 12.5 mg/kg/injection, schedule: Q01DX005 (ip), vehicle: Klucel (hydroxypropylcellulose) (HPC)) was 100 % of control, the T/C (dose: 25.0 mg/kg/injection, schedule: Q01DX005 (ip), vehicle: Klucel (hydroxypropylcellulose) (HPC)) was 103 % of control and the T/C [16] was 100 % of control and 97 % of control.

In the case of `CCCCCCCCCCCCCCCC[N+](C)(CCO)Cc1cnc[nH]1` (configuration not stated), the T/C [3] is reported as 110 % of control, the T/C (dose: 3.12 mg/kg/injection, schedule: Q01DX009 (ip), vehicle: saline) is reported as 111 % of control and the T/C [4] is reported as 118 % of control.

For `N#CC(OC(=O)c1ccccc1)C(OC(=O)c1ccccc1)C(COC(=O)c1ccccc1)OC(=O)c1ccccc1` (configuration not stated), the T/C [10] was 99 % of control and 92 % of control, the T/C [11] was 94 % of control and the T/C [12] was 99 % of control.

In the case of `S=C(Nc1ccc(Br)cc1)SCc1ccc(Cl)cc1`, the T/C (dose: 50.0 mg/kg/injection, schedule: Q01DX009 (ip), vehicle: suspension in saline) is reported as 97 % of control, the T/C (dose: 100.0 mg/kg/injection, schedule: Q01DX009 (ip), vehicle: suspension in saline) is reported as 105 % of control and the T/C (dose: 200.0 mg/kg/injection, schedule: Q01DX009 (ip), vehicle: suspension in saline) is reported as 119 % of control.

With `Cc1cc(Nc2ccc3c(c2)OCO3)c2cc(C3CCCCC3)ccc2n1` the T/C [14] was 95 % of control and the T/C [15] was 91 % of control.

With `C/C(=C/c1ccccc1)C(=O)C1C(c2ccccc2)CC(O)C(C)C1c1ccccc1` (configuration not stated) the T/C (dose: 100.0 mg/kg/injection, schedule: Q04DX003 (ip), vehicle: Klucel (hydroxypropylcellulose) (HPC)) was 93 % of control and the T/C (dose: 200.0 mg/kg/injection, schedule: Q04DX003 (ip), vehicle: Klucel (hydroxypropylcellulose) (HPC)) was 88 % of control.

In the case of `COC(=O)CS(=O)(=O)CCCCCS(=O)(=O)CC(=O)OC`, the T/C [1] is reported as 97 % of control, the T/C [2] is reported as 106 % of control and the T/C [13] is reported as 99 % of control.

`CC12C(=O)C(c3ccccc3)(C(c3ccccc3)=C1c1ccccc1)C1OC(=O)OC12` (configuration not stated) was tested, and the T/C (dose: 50.0 mg/kg/injection, schedule: Q01DX009 (ip), vehicle: saline with Tween-80) was 95 % of control and the T/C (dose: 100.0 mg/kg/injection, schedule: Q01DX009 (ip), vehicle: saline with Tween-80) was 91 % of control.

For `Cn1c2c(c(=O)c3c4[nH]c5c(c(=O)c4ccc31)CCCC5)CCCC2`, the T/C [16] was 108 % of control, the T/C (dose: 50.0 mg/kg/injection, schedule: Q04DX003 (ip), vehicle: saline with Tween-80) was 103 % of control and the T/C (dose: 100.0 mg/kg/injection, schedule: Q01DX005 (ip), vehicle: Klucel (hydroxypropylcellulose) (HPC)) was 101 % of control. The T/C (dose: 100.0 mg/kg/injection, schedule: Q04DX003 (ip), vehicle: saline with Tween-80) was 103 % of control and 96 % of control, the T/C (dose: 200.0 mg/kg/injection, schedule: Q01DX005 (ip), vehicle: Klucel (hydroxypropylcellulose) (HPC)) was 94 % of control and the T/C (dose: 200.0 mg/kg/injection, schedule: Q04DX003 (ip), vehicle: saline with Tween-80) was 99 % of control. The T/C (dose: 400.0 mg/kg/injection, schedule: Q04DX003 (ip), vehicle: saline with Tween-80) was 100 % of control and 94 % of control.

For `CCCCc1c(C#N)c(=O)n2c(N)c(C(=O)OCC)cnc2c1SC`, the T/C (dose: 3.75 mg/kg/injection, schedule: Q01DX005 (ip), vehicle: saline with Tween-80) was 104 % of control and 108 % of control, the T/C (dose: 7.5 mg/kg/injection, schedule: Q01DX005 (ip), vehicle: saline with Tween-80) was 117 % of control and 120 % of control and the T/C (dose: 15.0 mg/kg/injection, schedule: Q01DX005 (ip), vehicle: saline with Tween-80) was 120 % of control. For the same compound, the T/C [14] was 98 % of control and the T/C [15] was 92 % of control.

In the case of `CCC[CH2][Sn]([CH3])([CH3])[CH2]CC[N+](C)(C)C`, the T/C [5] is reported as 95 % of control, the T/C [6] is reported as 98 % of control and the T/C [1] is reported as 96 % of control.
